Assay results published in publication PMC5617979, “Comparative Study on Antistaphylococcal Activity of Lipopeptides in Various Culture Media” (Antibiotics, 2017).
Positions of bridges follow the written chain, without caps; N, C: chain ends. No end group written: not given here.

How the values were obtained:
[1] = system: Staphylococcus aureus (five reference strains ATCC 25923, ATCC 6538, ATCC 6538/P, ATCC 9144, ATCC 12598 and five clinical strains); assay: MIC assay, broth microdilution; type: cell-based; conditions: planktonic S. aureus, 5 × 10^5 CFU/mL, 18 h, 37 °C, Figure 1, mean MIC
Method: Antimicrobial activity was determined against five reference strains: S. aureus ATCC 25923, S. aureus ATCC 6538, S. aureus ATCC 6538/P, S. aureus ATCC 9144, and S. aureus ATCC 12598, which were obtained from the Polish Collection of Microorganisms (Polish Academy of Sciences, Wroclaw), and against five clinical strains of S. aureus, which were provided by the Department of Oral Microbiology, Medical University of Gdańsk (Poland). These strains were also characterized in terms of methicillin resistance. Preliminary identification and detection was conducted on the ChromID MRSA/ChromID S. aureus biplate (bioMérieux) for simultaneous detection of S. aureus and methicillin-resistant S. aureus (MRSA). All tested strains (both reference and clinical S. aureus) were stored in cryo-vials (Roti®-Store, Carl Roth) and recultivated before all microbiological tests. All strains were cultured in three different media: Brain-Heart Infusion Broth (BHI, Biocorp, Warsaw, Poland), Mueller Hinton Broth (MH, Biocorp), and Tryptic-Soy Broth (TSB, Biocorp). Moreover, the stock solutions of lipopeptides were prepared in two different solvents: PBS and an aqueous solution of acetic acid/BSA (0.01% and 0.2% respectively). MIC was determined by broth microdilution method on polystyrene 96-well plates. Bacteria at initial inoculums of 5 × 10^5 CFU/mL were exposed to lipopeptides at concentrations ranging from 0.5 to 256 µg/mL and incubated for 18 h at 37 °C. The MIC value was taken as the lowest concentration of the compound that inhibited the growth of the microorganisms. All assays were performed in triplicate and included the growth and sterility control.

Staphylococcus = conditions: previously described compounds; cited from earlier work
From the text: All of the lipopeptides are palmitoylated at N-terminus and contain three or four basic amino acid residues. Moreover, compounds are amidated at C-termini to maximize positive charge. […] Arginine, as a basic amino acid, introduce positive charge; however, it has more hydrogen donor atoms and is more basic (pKa~1 ...

S. aureus = conditions: cited from earlier work
From the text: (§1) It should be noted that conclusions drawn from the in vitro studies are not always consistent with those determined in vivo. Nevertheless, these “not-ideal” conditions may reveal an unexpected activity of new compounds. […] In this case, the MIC values decreased down to sixteenfold in the presence of plasma. The synergistic effect may be connected with complement proteins or clotting factors, as the a ...

Pseudomonas aeruginosa = conditions: cited from earlier work
From the text: as §1

Enterococcus faecalis = conditions: cited from earlier work
From the text: as §1

Escherichia coli = conditions: cited from earlier work
From the text: as §1

Substance	MIC values in BHI and TSB compared with MH (influence of medium type) [1]	antistaphylococcal activity (Staphylococcus)	also measured
Pal-CKKKRC-NH2 [Pal-CKKKRC-NH2 (linear), non-cyclized palmitoylated lipopeptide amide with two cysteine residues]	this dependence was not observed		
Pal-CKKRKC-NH2 (disulfide) [palmitoylated lipopeptide amide with intramolecular disulfide bridge]	slightly more active in MH		
Pal-CRKKKC-NH2 (disulfide) [palmitoylated lipopeptide amide with intramolecular disulfide bridge]	slightly more active in MH		
Pal-KKKK-NH2		high antistaphylococcal activity	
Pal-RRR-NH2		high antistaphylococcal activity	
protegrin-1 (RGGRLCYCRRRFCVCVGR-NH2; disulfide 8-13, 6-15; ends not checked; UniProt P32194 131-148, looked up) [antimicrobial peptide studied by Steinberg et al. (1997)]			fold lowering of MIC with peptide prepared in aqueous acetic acid and BSA vs reference CLSI protocol (S. aureus): 5 times; fold lowering of MIC with peptide prepared in aqueous acetic acid and BSA vs reference CLSI protocol (Pseudomonas aeruginosa): up to 30 times; fold lowering of MIC with peptide prepared in aqueous acetic acid and BSA vs reference CLSI protocol (Enterococcus faecalis): 5 times; fold lowering of MIC with peptide prepared in aqueous acetic acid and BSA vs reference CLSI protocol (Escherichia coli): up to 30 times
